Assay [1] concerns HT-29. In words: Reduction of cell viability in human HT29 cells at 2 uM followed by illumination at 2.5 W/cm'2 cold light for 40 seconds by XTT assay. Type of assay: functional, cell-based. (In general: Tetrazolium dyes change colour on reduction, which living cells bring about.)
For assay [2], the system named is HT-29. In words: Reduction of cell viability in human HT29 cells at 10 uM followed by illumination at 2.5 W/cm'2 cold light for 40 seconds by XTT assay. The format is functional, cell-based.
The next assay has as its system Pseudomonas aeruginosa. In words: Antimicrobial activity against […] Pseudomonas aeruginosa DSM1117 on exposure to 2.5 W/cm'2 cold light for 40 secs at 1 to 100 uM. Type of assay: functional, organism-based.
For assay [3], the species on record is Oryctolagus cuniculus. In words: Reduction of cell viability in rabbit HIG82 cells at 2 uM followed by illumination at 2.5 W/cm'2 cold light for 40 seconds by XTT assay. The format is functional, cell-based.
Assay [4] relates to J774.A1. In words: Reduction of cell viability in mouse J774A.1 cells at 2 uM followed by illumination at 2.5 W/cm'2 cold light for 40 seconds by XTT assay. The format is functional, cell-based.
The species named for assay [5] is Oryctolagus cuniculus. In words: Reduction of cell viability in rabbit HIG82 cells at 10 uM followed by illumination at 2.5 W/cm'2 cold light for 40 seconds by XTT assay. The format is functional, cell-based.
For assay [6], the system named is J774.A1. In words: Reduction of cell viability in mouse J774A.1 cells at 10 uM followed by illumination at 2.5 W/cm'2 cold light for 40 seconds by XTT assay. Type of assay: functional, cell-based.

Molecules are shown by their SMILES. Activity calls are given as the source filed them. The calls are words filed in the database; no cut-off is given here.

Consider `Cc1cc(O)c2c(c1)[C@H](O)[C@]13Cc4cc(O)c5c(c4[C@H]1C=C[C@@H](O)[C@@]3(O)C2=O)C(=O)c1c(O)ccc(O)c1C5=O`, for which the result in the assay on HT-29 [1] and with HT-29 [2] was Active. Besides, in the assay with Pseudomonas aeruginosa, the result was inactive.

Take `Cc1cc(O)c2c(c1)[C@H](O)[C@]13Cc4cc(O)c5c(c4[C@H]1C=C[C@@H](O)[C@H]3OC2=O)C=C1C(=O)C=CC(O)=C1C5=O`: the result in the assay filed under Oryctolagus cuniculus [3], in the assay with J774.A1 [4] and with Pseudomonas aeruginosa was inactive.

With `Cc1cc(O)c2c(c1)[C@H](O)[C@]13Cc4cc(O)c5c(c4[C@H]1C=C[C@@H](O)[C@@]3(O)C2=O)C(=O)c1cccc(O)c1C5=O`, the result in the assay filed under Oryctolagus cuniculus [3], in the assay filed under Oryctolagus cuniculus [5], in the assay with J774.A1 [4] and with J774.A1 [6] was Active. In addition, the outcome in the assay with Pseudomonas aeruginosa was inactive.

Turning to `Cc1cc(O)c2c(c1)C(=O)c1cccc(O)c1C2=O`, the result in the assay filed under Oryctolagus cuniculus [3], in the assay with J774.A1 [4] and with Pseudomonas aeruginosa was inactive.

Source of the values: ChEMBL document CHEMBL1155818, “Uredinorubellins and caeruleoramularin, photodynamically active anthraquinone derivatives produced by two species of the genus ramularia” (J Nat Prod, 2008).
